PubChem BioAssay (NCI)
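Method: 48-hour compound exposure of cells in 96-well plates, five concentrations, linear interpolation of endpoints. At the GI50, growth is halved. Definition used: TGI = concentration required for complete inhibition of growth.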

How the values were obtained:
Assay in all cases: NCI-60 cell line screen, 48 h
MDA-MB-468 breast = tested on: MDA-MB-468 breast
HL-60(TB) leukemia = tested on: HL-60(TB) leukemia
SF-295 CNS = tested on: SF-295 CNS
MDA-MB-435 = tested on: MDA-MB-435
MALME-3M melanoma = tested on: MALME-3M melanoma
HOP-62 NSCLC = tested on: HOP-62 NSCLC
TK-10 renal = tested on: TK-10 renal
IGROV1 ovarian = tested on: IGROV1 ovarian
SK-OV-3 ovarian = tested on: SK-OV-3 ovarian
EKVX NSCLC = tested on: EKVX NSCLC
HCT-15 colon = tested on: HCT-15 colon
HS 578T breast = tested on: HS 578T breast
786-0 renal = tested on: 786-0 renal
U251 CNS = tested on: U251 CNS
PC-3 prostate = tested on: PC-3 prostate
COLO 205 colon = tested on: COLO 205 colon
BT-549 breast = tested on: BT-549 breast
NCI/ADR-RES ovarian = tested on: NCI/ADR-RES ovarian
RXF 393 renal = tested on: RXF 393 renal
RPMI-8226 leukemia = tested on: RPMI-8226 leukemia
NCI-H23 lung = tested on: NCI-H23 lung
SK-MEL-28 melanoma = tested on: SK-MEL-28 melanoma
OVCAR-3 ovarian = tested on: OVCAR-3 ovarian
SNB-19 CNS = tested on: SNB-19 CNS
NCI-H226 lung = tested on: NCI-H226 lung
SN12C renal = tested on: SN12C renal
NCI-H460 lung = tested on: NCI-H460 lung
KM12 colon = tested on: KM12 colon
SK-MEL-5 melanoma = tested on: SK-MEL-5 melanoma
ACHN renal = tested on: ACHN renal
UACC-62 melanoma = tested on: UACC-62 melanoma
CCRF-CEM leukemia = tested on: CCRF-CEM leukemia
MDA-MB-231 breast = tested on: MDA-MB-231 breast
SW-620 colon = tested on: SW-620 colon
M14 melanoma = tested on: M14 melanoma
K-562 leukemia = tested on: K-562 leukemia
UO-31 renal = tested on: UO-31 renal
SNB-75 CNS = tested on: SNB-75 CNS
OVCAR-5 ovarian = tested on: OVCAR-5 ovarian
SK-MEL-2 melanoma = tested on: SK-MEL-2 melanoma
CAKI-1 renal = tested on: CAKI-1 renal
MOLT-4 leukemia = tested on: MOLT-4 leukemia
HT29 colon = tested on: HT29 colon
OVCAR-8 ovarian = tested on: OVCAR-8 ovarian
HCC-2998 colon = tested on: HCC-2998 colon
HCT-116 colon = tested on: HCT-116 colon
DU-145 prostate = tested on: DU-145 prostate
A549 NSCLC = tested on: A549 NSCLC
UACC-257 melanoma = tested on: UACC-257 melanoma
LOX IMVI melanoma = tested on: LOX IMVI melanoma
OVCAR-4 ovarian = tested on: OVCAR-4 ovarian
MCF7 breast = tested on: MCF7 breast
NCI-H522 lung = tested on: NCI-H522 lung
SF-539 CNS = tested on: SF-539 CNS
A498 renal = tested on: A498 renal
SF-268 CNS = tested on: SF-268 CNS
HOP-92 NSCLC = tested on: HOP-92 NSCLC
T-47D breast = tested on: T-47D breast

CC12CCC3C(CC=C4CC(O)CCC43C)C1C/C(=C\N1CCCC1)C2=O (configuration not stated)
GI50 (MDA-MB-468 breast): 51200 nM | TGI (MDA-MB-468 breast): > 100000 nM

Cc1ccc(C(CN(C)C)C(=O)c2ccccc2)cc1 (configuration not stated)
GI50 (MDA-MB-468 breast): 1320 nM | TGI (MDA-MB-468 breast): 3610 nM

COc1ccc(-n2c(SCc3cc(OC)c(OC)c(OC)c3)nc3ccc(C)cc3c2=O)c(OC)c1
GI50 (MDA-MB-468 breast): 3160 nM | TGI (MDA-MB-468 breast): 9380 nM

CCN(CC)c1ccc(/C=C\c2cc(C)c3cc(C)ccc3n2)cc1
GI50 (MDA-MB-468 breast): 3020 nM | TGI (MDA-MB-468 breast): 20300 nM

CCCCn1c2cc(OCc3cn(-c4ccc(Cl)cc4)nn3)ccc2c2ccnc(C)c21
GI50 (MDA-MB-468 breast): 5230 nM | TGI (MDA-MB-468 breast): > 33300 nM

Cc1ccc(C(=O)Nc2ccc(CN3CCN(C)CC3)c(C(F)(F)F)c2)cc1C#Cc1cnc(N)cc1C#N
GI50 (MDA-MB-468 breast): 399 nM | TGI (MDA-MB-468 breast): 1230 nM

c1ccc(Cc2nc3ccc(Nc4ncnc5ccccc45)cc3[nH]2)cc1
GI50 (MDA-MB-468 breast): 6650 nM | TGI (MDA-MB-468 breast): 24300 nM

COc1ccc(/C=C/C(=O)c2cc3c(N)c(C(=O)Nc4ccccc4Cl)sc3nc2C)cc1
GI50 (MDA-MB-468 breast): 279 nM | TGI (MDA-MB-468 breast): 4100 nM

COc1ccc(-c2cc(-c3ccc(OC)c(OC)c3)nc(SCCCC(=O)NO)n2)cc1
GI50 (MDA-MB-468 breast): 1180 nM | TGI (MDA-MB-468 breast): 3440 nM

N[C@@H](Cc1c[nH]c2ccccc12)C(=O)NC1CCN(C(=O)c2c[nH]c3ccccc23)CC1
GI50 (MDA-MB-468 breast): 54200 nM | TGI (MDA-MB-468 breast): > 100000 nM

OCc1cn(Cc2cccc(Cl)c2)c2ccccc12
GI50 (MDA-MB-468 breast): 13.4 nM | TGI (MDA-MB-468 breast): 33.3 nM

Oc1ccc(/C=N\Nc2ccccn2)c(O)c1
GI50 (MDA-MB-468 breast): 2430 nM | TGI (MDA-MB-468 breast): 8560 nM

CN(C)CCCn1c2c(c3cnccc3c1=O)C(=O)c1ccccc1-2
GI50 (MDA-MB-468 breast): 352 nM | TGI (MDA-MB-468 breast): 2540 nM

CCOc1ccccc1NC(=O)N/C(N)=N/c1nc2ccccc2s1
GI50 (HL-60(TB) leukemia): 17.7 nM | TGI (HL-60(TB) leukemia): 59.6 nM | GI50 (SF-295 CNS): < 16.4 nM | TGI (SF-295 CNS): 13800 nM | GI50 (MDA-MB-435): < 10 nM | TGI (MDA-MB-435): 14.6 nM | GI50 (MALME-3M melanoma): < 18.5 nM | TGI (MALME-3M melanoma): 45100 nM | GI50 (HOP-62 NSCLC): < 20 nM | TGI (HOP-62 NSCLC): 20000 nM | GI50 (TK-10 renal): > 39400 nM | TGI (TK-10 renal): > 100000 nM | GI50 (IGROV1 ovarian): 27.4 nM | TGI (IGROV1 ovarian): 30100 nM | GI50 (SK-OV-3 ovarian): 49.1 nM | TGI (SK-OV-3 ovarian): > 77400 nM | GI50 (EKVX NSCLC): 45.8 nM | TGI (EKVX NSCLC): 35000 nM | GI50 (HCT-15 colon): < 16.8 nM | TGI (HCT-15 colon): 12600 nM | GI50 (HS 578T breast): < 10.7 nM | TGI (HS 578T breast): > 78600 nM | GI50 (786-0 renal): 29.6 nM | TGI (786-0 renal): 13300 nM | GI50 (U251 CNS): < 16.4 nM | TGI (U251 CNS): 13700 nM | GI50 (PC-3 prostate): 25.2 nM | TGI (PC-3 prostate): > 74600 nM | GI50 (COLO 205 colon): 30.1 nM | TGI (COLO 205 colon): 106 nM | GI50 (BT-549 breast): 24.6 nM | TGI (BT-549 breast): 126 nM | GI50 (NCI/ADR-RES ovarian): < 10 nM | TGI (NCI/ADR-RES ovarian): 29.8 nM | GI50 (RXF 393 renal): < 12.9 nM | TGI (RXF 393 renal): 40000 nM | GI50 (RPMI-8226 leukemia): 37.1 nM | TGI (RPMI-8226 leukemia): > 39700 nM | GI50 (NCI-H23 lung): < 18.6 nM | TGI (NCI-H23 lung): 23000 nM | GI50 (SK-MEL-28 melanoma): 14500 nM | TGI (SK-MEL-28 melanoma): > 100000 nM | GI50 (OVCAR-3 ovarian): < 10 nM | TGI (OVCAR-3 ovarian): 11400 nM | GI50 (SNB-19 CNS): 31 nM | TGI (SNB-19 CNS): 53800 nM | GI50 (NCI-H226 lung): 43.5 nM | TGI (NCI-H226 lung): 1480 nM | GI50 (SN12C renal): 27.2 nM | TGI (SN12C renal): 13800 nM | GI50 (NCI-H460 lung): 26.4 nM | TGI (NCI-H460 lung): 10900 nM | GI50 (KM12 colon): < 13.8 nM | TGI (KM12 colon): > 45800 nM | GI50 (SK-MEL-5 melanoma): < 14.1 nM | TGI (SK-MEL-5 melanoma): 34.1 nM | GI50 (ACHN renal): < 15.2 nM | TGI (ACHN renal): 22700 nM | GI50 (UACC-62 melanoma): < 10 nM | TGI (UACC-62 melanoma): > 55600 nM | GI50 (MDA-MB-468 breast): 23.3 nM | TGI (MDA-MB-468 breast): 61.5 nM | GI50 (CCRF-CEM leukemia): 28.9 nM | TGI (CCRF-CEM leukemia): > 32500 nM | GI50 (MDA-MB-231 breast): < 16.2 nM | TGI (MDA-MB-231 breast): 744 nM | GI50 (SW-620 colon): < 17.5 nM | TGI (SW-620 colon): > 42300 nM | GI50 (M14 melanoma): < 14 nM | TGI (M14 melanoma): 23200 nM | GI50 (K-562 leukemia): < 10 nM | TGI (K-562 leukemia): > 35600 nM | GI50 (UO-31 renal): < 30.8 nM | TGI (UO-31 renal): > 88600 nM | GI50 (SNB-75 CNS): < 10 nM | TGI (SNB-75 CNS): > 69100 nM | GI50 (OVCAR-5 ovarian): 37.8 nM | TGI (OVCAR-5 ovarian): > 41000 nM | GI50 (SK-MEL-2 melanoma): 25.9 nM | TGI (SK-MEL-2 melanoma): 42500 nM | GI50 (CAKI-1 renal): < 14.1 nM | TGI (CAKI-1 renal): > 49000 nM | GI50 (MOLT-4 leukemia): 38.8 nM | TGI (MOLT-4 leukemia): > 33500 nM | GI50 (HT29 colon): 21 nM | TGI (HT29 colon): 67.3 nM | GI50 (OVCAR-8 ovarian): < 17.2 nM | TGI (OVCAR-8 ovarian): 26900 nM | GI50 (HCC-2998 colon): 24.2 nM | TGI (HCC-2998 colon): 10900 nM | GI50 (HCT-116 colon): < 15.7 nM | TGI (HCT-116 colon): 310 nM | GI50 (DU-145 prostate): 28.7 nM | TGI (DU-145 prostate): 11900 nM | GI50 (A549 NSCLC): 53.2 nM | TGI (A549 NSCLC): > 53100 nM | GI50 (UACC-257 melanoma): 32000 nM | TGI (UACC-257 melanoma): > 100000 nM | GI50 (LOX IMVI melanoma): < 14.8 nM | TGI (LOX IMVI melanoma): 15100 nM | GI50 (OVCAR-4 ovarian): 11100 nM | TGI (OVCAR-4 ovarian): 63600 nM | GI50 (MCF7 breast): 26.5 nM | TGI (MCF7 breast): 23300 nM | GI50 (NCI-H522 lung): < 10 nM | TGI (NCI-H522 lung): 20.1 nM | GI50 (SF-539 CNS): < 11.9 nM | TGI (SF-539 CNS): < 22.5 nM | GI50 (A498 renal): 22100 nM | TGI (A498 renal): 44600 nM | GI50 (SF-268 CNS): 84.6 nM | TGI (SF-268 CNS): > 100000 nM | GI50 (HOP-92 NSCLC): 6330 nM | TGI (HOP-92 NSCLC): > 58700 nM | GI50 (T-47D breast): 13900 nM | TGI (T-47D breast): > 100000 nM
